Where “and” joins values, the source holds several entries; their conditions need not be identical. Equal entries are not always repeated.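 These data come from cells grown in 96-well plates and exposed to compound for 48 hours at five concentrations. Abbreviation: GI50, concentration required for 50% inhibition of growth. TGI: concentration producing complete growth inhibition.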
Assays:
Assay in all cases: growth of human tumour cells (NCI), 48 h
[1] = system: OVCAR-4 ovarian
[2] = system: HT29 colon
[3] = system: T-47D breast
[4] = system: ACHN renal
[5] = system: OVCAR-8 ovarian
[6] = system: SN12C renal
[7] = system: NCI/ADR-RES ovarian
[8] = system: SR leukemia
[9] = system: BT-549 breast
[10] = system: U251 CNS
[11] = system: CCRF-CEM leukemia

SMILES | TGI [1] | TGI [2] | TGI [3] | TGI [4] | TGI [5] | TGI [6] | TGI [7] | TGI [8] | TGI [9] | TGI [10] | TGI [11] | GI50 [1] | GI50 [2] | GI50 [3] | GI50 [5] | GI50 [6] | GI50 [9] | GI50 [10] | GI50 [11]
C=CC(Br)(CBr)CCC(Br)C(C)C (configuration not stated) | 17.9 µM | 8.4 µM | 0.971 µM | 20.6 µM | 8.58 µM | 27.2 µM | 33.8 µM | 3.99 µM | 11.5 µM | 12.6 µM | 3.46 µM | – | – | – | – | – | – | – | –
Cc1nc2c(=O)[nH]c3ccc(Cl)cc3c2o1 | > 100 µM | > 100 µM | > 100 µM | > 100 µM | > 100 µM | > 100 µM | > 100 µM | > 100 µM | > 100 µM | > 100 µM | > 100 µM | – | – | – | – | – | – | – | –
CC(=O)C1(O)Cc2c(O)c3c(c(O)c2C(OC2CC(N)C(O)C(C)O2)C1)C(=O)c1ccccc1C3=O (configuration not stated) | 0.996 µM | 0.432 µM and 0.234 µM | 0.631 µM and 0.219 µM | 0.097 µM and 0.0268 µM | 0.597 µM and 0.817 µM | 0.115 µM and 0.163 µM | 4.88 µM | 0.0813 µM | 0.652 µM and 1.2 µM | 0.419 µM and 0.13 µM | – | 0.0663 µM | 0.0117 µM | < 0.0145 µM | 0.0147 µM | < 0.0117 µM | 0.0603 µM | < 0.0115 µM | 0.00214 µM
CCOP(=O)(OCC)C(Nc1ccc(F)cc1)c1ccccc1 (configuration not stated) | > 100 µM | > 100 µM | > 100 µM | > 100 µM | > 100 µM | > 100 µM | > 100 µM | > 100 µM | > 100 µM | > 100 µM | > 100 µM | – | – | – | – | – | – | – | –
OC(CN1CCCCC1)c1ccc(/C=C/c2ccc(Cl)cc2)cc1 (configuration not stated) | > 100 µM | > 100 µM | > 100 µM | > 100 µM | > 100 µM | > 100 µM | > 100 µM | > 100 µM | > 100 µM | > 100 µM | > 100 µM | – | – | – | – | – | – | – | –

— PubChem BioAssay (NCI)
